Assay results: patent US20250026724A1, “(1,4,5-TRISUBSTITUTED 1H-PYRAZOL-3-YL)OXY-2-ALKYLTHIOALKYL ACIDS AND -ALKYL ACID DERIVATIVES, SALTS THEREOF AND USE THEREOF AS ACTIVE HERBICIDAL INGREDIENTS” (BAYER AKTIENGESELLSCHAFT, priority 2021, published 2025)

Tests used:
Assay type in all cases: in vivo
[1] = tested on: Abutilon theophrasti (ABUTH); experiment: Post-emergence herbicidal action, greenhouse pot trial; details: Abutilon theophrasti, 504 h, visual rating after about 3 weeks; for pest or weed control at 80 g/ha: read-out: Post-emergence effect at 80 g/ha against ABUTH in %; for pest or weed control at 320 g/ha: read-out: Post-emergence effect at 320 g/ha against ABUTH in %
Method: (§1) Seeds of monocotyledonous and dicotyledonous weeds and crop plants are placed in sandy loam in plastic or organic planting pots, covered with soil and cultivated in a greenhouse under controlled growth conditions. 2 to 3 weeks after sowing, the trial plants are treated at the one-leaf stage. The compounds of the invention, formulated in the form of wettable powders (WP) or as emulsion concentrates (EC), are then sprayed onto the green parts of the plants as aqueous suspension or emulsion with addition of 0.5% additive at a water application rate equivalent to 600 l/ha. After about 3 weeks of keeping the trial plants in the greenhouse under optimum growth conditions, the effect of the preparations is rated visually in comparison to untreated controls. For example, 100% activity=the plants have died, 0% activity=like control plants.
(§2) Tables B1 to B14 below show the effects of selected compounds of the general formula (I) according to Table 1 on various harmful plants and at an application rate corresponding to 320 g/ha or lower, which were obtained by the trial procedure specified above. The appendices “a”, “b” and “c” give differentiation by dosage used with otherwise the same harmful plants tested.
(§3) As shown by results from Tables B1 to B19, inventive compounds of the general formula (I) in the case of post-emergence treatment have good herbicidal efficacy against harmful plants, for example Abutilon theophrasti (ABUTH), Alopecurus myosuroides (ALOMY), Amaranthus retroflexus (AMARE), Avena fatua (AVEFA), Digitaria sanguinalis (DIGSA), Echinochloa crus-galli (ECHCG), Bassia scoparia (KCHSC), Lolium rigidum (LOLRI), Matricaria inodora (MATIN), Pharbitis purpurea (PHBPU), Polygonum convolvulus (POLCO), Setaria viridis (SETVI), Veronica persica (VERPE) and Viola tricolor (VIOTR) at an application rate of 320 g of active substance or less per hectare, and good crop plant compatibility in the case of organisms such as Oryza sativa (ORYSA), Zea mays (ZEAMX), Brassica napus (BRSNW), Glycine max (GLXMA) and Triticum aestivum (TRZAS) at an application rate of 320 g or less per hectare.

[2] = tested on: Alopecurus myosuroides (ALOMY); experiment: as above; details: visual rating after about 3 weeks; for pest or weed control at 320 g/ha: Alopecurus myosuroides, 504 h, read-out: Post-emergence effect at 320 g/ha against ALOMY in %
Method: as §1, §2, §3

[3] = tested on: Amaranthus retroflexus (AMARE); experiment: as above; details: visual rating after about 3 weeks; for pest or weed control at 80 g/ha / pest or weed control at 320 g/ha: Amaranthus retroflexus, 504 h; for pest or weed control at 80 g/ha: read-out: Post-emergence effect at 80 g/ha against AMARE in %; for pest or weed control at 320 g/ha: read-out: Post-emergence effect at 320 g/ha against AMARE in %
Method: as §1, §2, §3

[4] = tested on: Digitaria sanguinalis (DIGSA); experiment: as above; details: visual rating after about 3 weeks; for pest or weed control at 320 g/ha: Digitaria sanguinalis, 504 h, read-out: Post-emergence effect at 320 g/ha against DIGSA in %
Method: as §1, §2, §3

[5] = tested on: Echinochloa crus-galli (ECHCG); experiment: as above; details: Echinochloa crus-galli, 504 h, visual rating after about 3 weeks; for pest or weed control at 80 g/ha: read-out: Post-emergence effect at 80 g/ha against ECHCG in %; for pest or weed control at 320 g/ha: read-out: Post-emergence effect at 320 g/ha against ECHCG in %
Method: as §1, §2, §3

Lolium rigidum (LOLRI) = experiment: as above; details: visual rating after about 3 weeks; for pest or weed control at 320 g/ha: Lolium rigidum, 504 h, read-out: Post-emergence effect at 320 g/ha against LOLRI in %
Method: as §1, §2, §3

[6] = tested on: Matricaria inodora (MATIN); experiment: as above; details: Tripleurospermum inodorum, 504 h, visual rating after about 3 weeks; for pest or weed control at 80 g/ha: read-out: Post-emergence effect at 80 g/ha against MATIN in %; for pest or weed control at 320 g/ha: read-out: Post-emergence effect at 320 g/ha against MATIN in %
Method: as §1, §2, §3

[7] = tested on: Pharbitis purpurea (PHBPU); experiment: as above; details: visual rating after about 3 weeks; for pest or weed control at 320 g/ha / pest or weed control at 80 g/ha: Ipomoea purpurea, 504 h; for pest or weed control at 320 g/ha: read-out: Post-emergence effect at 320 g/ha against PHBPU in %; for pest or weed control at 80 g/ha: read-out: Post-emergence effect at 80 g/ha against PHBPU in %
Method: as §1, §2, §3

[8] = tested on: Polygonum convolvulus (POLCO); experiment: as above; details: visual rating after about 3 weeks; for pest or weed control at 80 g/ha / pest or weed control at 320 g/ha: Fallopia convolvulus, 504 h; for pest or weed control at 80 g/ha: read-out: Post-emergence effect at 80 g/ha against POLCO in %; for pest or weed control at 320 g/ha: read-out: Post-emergence effect at 320 g/ha against POLCO in %
Method: as §1, §2, §3

Setaria viridis (SETVI) = experiment: as above; details: visual rating after about 3 weeks; for pest or weed control at 320 g/ha: Setaria viridis, 504 h, read-out: Post-emergence effect at 320 g/ha against SETVI in %
Method: as §1, §2, §3

Viola tricolor (VIOTR) = experiment: as above; details: Viola tricolor, 504 h, read-out: Post-emergence effect against VIOTR
Method: as §1, §2, §3

Avena fatua (AVEFA) = experiment: as above; details: visual rating after about 3 weeks; for pest or weed control at 320 g/ha: Avena fatua, 504 h, read-out: Post-emergence effect at 320 g/ha against AVEFA in %
Method: as §1, §2, §3

Bassia scoparia (KCHSC) = experiment: as above; details: 320 g/ha
Method: as §1, §2, §3

[9] = tested on: Triticum aestivum (TRZAS); experiment: Post-emergence crop plant compatibility, greenhouse pot trial; details: in vivo
Method: as §1
The observed effects on selected crop plants are reported here in comparison to the untreated controls (values in %). The appendices “a”, “b” and “c” give differentiation by dosage used with otherwise the same useful plants tested.
as §3

Row | SMILES | pest or weed control at 80 g/ha [1] | pest or weed control at 320 g/ha [1] | pest or weed control at 320 g/ha [2] | pest or weed control at 80 g/ha [3] | pest or weed control at 320 g/ha [3] | Post-emergence effect at 80 g/ha against DIGSA in % [4] | pest or weed control at 320 g/ha [4] | pest or weed control at 80 g/ha [5] | pest or weed control at 320 g/ha [5] | pest or weed control at 320 g/ha (Lolium rigidum (LOLRI)) | pest or weed control at 80 g/ha [6] | pest or weed control at 320 g/ha [6] | pest or weed control at 320 g/ha [7] | pest or weed control at 80 g/ha [8] | pest or weed control at 320 g/ha [8] | pest or weed control at 320 g/ha (Setaria viridis (SETVI)) | pest or weed control at 80 g/ha (Viola tricolor (VIOTR)) | pest or weed control at 320 g/ha (Viola tricolor (VIOTR)) | pest or weed control at 320 g/ha (Avena fatua (AVEFA)) | pest or weed control at 80 g/ha [7] | other results
1 | COC(=O)C(Oc1nn(-c2ccccc2F)c(-c2ccc(F)nc2)c1Br)SC (stereo not drawn) [Example I-10] | 90% | 90% | 100% | 80% | 80% | 90% | 90% | 80% | 90% | 90% | 80% | 90% | 80% | 80% | 80% | 90% | 80% | 90% |  |  | Post-emergence effect at 20 g/ha against AMARE in % [3]: 80%; Post-emergence effect at 80 g/ha against SETVI in % (Setaria viridis (SETVI)): 90%
2 | CCOC(=O)C(Oc1nn(-c2ncccc2F)c(-c2ccc(F)nc2)c1Br)SC (single isomer, unassigned) [Example I-28] | 80% | 80% | 90% | 90% | 90% | 80% | 90% | 90% | 90% | 90% | 80% | 90% | 90% | 90% | 90% | 90% | 80% | 90% | 80% | 90% | Post-emergence effect at 20 g/ha against AMARE in % [3]: 80%; Post-emergence effect against KCHSC (Bassia scoparia (KCHSC)): 80%; Post-emergence effect at 80 g/ha against LOLRI in % (Lolium rigidum (LOLRI); 80 g/ha): 90%; Post-emergence effect at 20 g/ha against PHBPU in % [7]: 80%; Post-emergence effect at 80 g/ha against SETVI in % (Setaria viridis (SETVI)): 80%
3 | CSC(Oc1nn(-c2cc(F)ccc2F)c(-c2cncc(F)c2)c1Br)C(=O)O (stereo not drawn) [Example I-06] |  |  |  |  |  |  | 80% |  | 90% |  |  | 90% | 80% |  |  |  | 80% | 90% |  |  | Post-emergence effect at 320 g/ha against TRZAS in % [9]: 20%
4 | COC(=O)C(Oc1nn(-c2ncccc2F)c(-c2ccc(F)nc2)c1Br)SC (single isomer, unassigned) [Example I-26] | 80% | 80% | 90% | 80% | 90% | 90% | 90% | 90% | 90% | 90% | 90% | 90% | 90% | 80% | 90% | 80% | 90% | 90% | 90% | 80% | Post-emergence effect at 80 g/ha against ALOMY in % ([2]; 80 g/ha): 80%; Post-emergence effect at 80 g/ha against AVEFA in % (Avena fatua (AVEFA); 80 g/ha): 80%; Post-emergence effect against KCHSC (Bassia scoparia (KCHSC)): 80%; Post-emergence effect at 20 g/ha against PHBPU in % [7]: 80%; Post-emergence effect at 20 g/ha against POLCO in % ([8]; 20 g/ha): 80%
5 | CCOC(=O)C(Oc1nn(-c2ncccc2F)c(-c2ccccc2)c1Br)SC (stereo not drawn) [Example I-11] |  | 80% |  | 80% | 90% |  |  |  | 80% |  |  | 80% |  | 80% | 80% |  |  |  |  |  | Post-emergence effect at 320 g/ha against TRZAS in % [9]: 0%
6 | COC(=O)C(Oc1nn(-c2ncccc2F)c(-c2ccc(F)nc2)c1Cl)SC (stereo not drawn) [Example I-56] | 80% | 90% | 80% |  |  |  | 80% | 90% | 90% | 90% |  | 80% | 90% | 80% | 90% | 90% | 80% | 90% | 90% | 90% | pest or weed control at 320 g/ha (Bassia scoparia (KCHSC); Bassia scoparia, 504 h, read-out: Post-emergence effect against KCHSC): 80%; Post-emergence effect at 20 g/ha against PHBPU in % [7]: 80%
7 | CCOC(=O)C(Oc1nn(-c2ncccc2F)c(-c2ccc(F)nc2)c1Br)SC (stereo not drawn) [Example I-13] | 90% | 90% | 80% | 80% | 90% |  | 90% | 80% | 90% | 90% |  |  | 80% | 80% | 90% | 90% |  | 80% | 90% | 80% | Post-emergence effect at 80 g/ha against SETVI in % (Setaria viridis (SETVI)): 80%
